Assay results reported in ChEMBL document CHEMBL1201862, “PubChem BioAssay data set” (2004).
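Tested at 5 concentrations; 48 h exposure; 96-well plates; endpoints linearly interpolated, else capped at highest concentration. GI50 = concentration required for 50% inhibition of growth.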 Activity calls are given as the source filed them. Rule as the data show it: active = GI50 up to about 1.1 µM and inactive = higher.

How the values were obtained:
Assay in all cases: NCI tumour cell line growth inhibition, 48 h
[1] = system: OVCAR-4
[2] = system: T47D
[3] = system: RPMI-8226
[4] = system: SK-MEL-2
[5] = system: SK-MEL-5
[6] = system: A498
[7] = system: DU-145
[8] = system: UACC-62
[9] = system: IGROV-1
[10] = system: OVCAR-8
[11] = system: MDA-N
[12] = system: CCRF-CEM
[13] = system: HOP-62
[14] = system: OVCAR-3
[15] = system: RXF 393
[16] = system: KM12
[17] = system: ACHN
[18] = system: SW-620
[19] = system: NCI-H460
[20] = system: Hs-578T
[21] = system: LOX IMVI
[22] = system: 786-0
[23] = system: SK-MEL-28
[24] = system: M14
[25] = system: HCT-116
[26] = system: PC-3
[27] = system: HCT-15
[28] = system: A549
[29] = system: EKVX
[30] = system: COLO 205
[31] = system: SK-OV-3
[32] = system: SF-268
[33] = system: SN12C
[34] = system: HT-29
[35] = system: OVCAR-5
[36] = system: TK-10
[37] = system: NCI-H23
[38] = system: HL-60
[39] = system: MDA-MB-435
[40] = system: NCI-H226
[41] = system: SNB-19
[42] = system: U-251
[43] = system: NCI/ADR-RES
[44] = system: SNB-75
[45] = system: UACC-257
[46] = system: K562
[47] = system: HCC 2998
[48] = system: CAKI-1
[49] = system: MOLT-4
[50] = system: NCI-H522
[51] = system: MDA-MB-231
[52] = system: SR
[53] = system: HOP-92
[54] = system: UO-31
[55] = system: BT-549

Measured: GI50

O=C1OC(c2ccccc2)=N/C1=C\c1ccc(F)cc1
inactive: [1] 97.3 µM | [2] > 100 µM | [3] 38.9 µM | [4] > 100 µM | [5] 80.5 µM | [6] > 100 µM | [7] > 100 µM | [8] > 100 µM | [9] 71.3 µM | [10] 47 µM | [11] > 100 µM | [12] 35.8 µM | [13] 42.4 µM | [14] 22.2 µM | [15] > 100 µM | [16] > 100 µM | [17] > 100 µM | [18] > 100 µM | [19] > 100 µM | [20] > 100 µM | [21] 38.9 µM | [22] > 100 µM | [23] > 100 µM | [24] > 100 µM | [25] > 100 µM | [26] > 100 µM | [28] > 100 µM | [29] > 100 µM | [30] > 100 µM | [31] > 100 µM | [32] 66.8 µM | [33] > 100 µM | [34] > 100 µM | [35] > 100 µM | [36] > 100 µM | [37] > 100 µM | [38] > 100 µM | [39] > 100 µM | [40] 35.6 µM | [41] > 100 µM | [42] 89.7 µM | [43] 46.6 µM | [44] > 100 µM | [45] > 100 µM | [46] > 100 µM | [47] > 100 µM | [48] > 100 µM | [49] 50.6 µM | [50] 40.5 µM | [51] > 100 µM | [52] > 100 µM | [53] > 100 µM | [54] > 100 µM | [55] 75.3 µM
> 100 µM: [27]
